{"source": "paper PMC11218446", "about": "“Antibacterial efficacy and membrane mechanism of action of the Serratia-derived non-ionic lipopeptide, serrawettin W2-FL10” (Microbiology Spectrum, 2024)", "key": {"[1]": {"tested_on": "tested Gram-negative bacterial strains", "assay": "Broth microdilution assay (OD 600 nm)", "format": "cell-based", "conditions": "results not shown", "source_text": "The S. marcescens NP2 strain was previously isolated from a wastewater treatment plant sample and the identity of the strain was confirmed via molecular typing ([47]). The S. marcescens NP2 strain was deposited in the South African Rhizobium Culture Collection (SARCC no. 3157). The test bacterial strains used in the broth microdilution assay included L. monocytogenes ATCC 13932, E. faecalis ATCC 7080, S. aureus ATCC 25923, S. aureus RN4220, MRSA Xen 30, E. faecalis S1, E. faecium S1, B. subtilis ATCC 6051, E. coli ATCC 417371, P. aeruginosa ATCC 27853, K. pneumoniae ATCC 13383, A. baumannii ATCC 19606, and S. typhimurium ATCC 14028. […]\nAll the cultures (inoculated into 5 mL MHB, or 5 mL TSB for Listeria and Enterococcus strains) were incubated at 37°C to reach an optical density (OD) of 0.4 at 600 nm (∼10^7 CFU/mL). […] Following incubation, the absorbance was measured using a microtiter plate reader at 600 nm. […]\nThe “top” and “bottom” are the maximum and minimum inhibition responses, respectively, for a particular set of dose-response data, while the activity slope is related to the Hill slope of a sigmoidal binding curve ([16]). […] In addition to the MIC and IC50 inhibition parameters, an inhibition concentration factor (ICF), was calculated as outlined in Rautenbach et al. ([17]). […]"}, "MRSA Xen 30": {"tested_on": "MRSA Xen 30", "assay": "Membrane permeability assay, propidium iodide", "format": "cell-based, Staphylococcus aureus", "conditions": "25 µg/mL", "description": "(§1) The membrane permeability capabilities of the W2-FL10 against the S. aureus strains were determined using PI ([56]). Briefly, black 96-well plates were prepared with W2-FL10 at 6.25, 12.5, and 25 µg/mL, while 4–16 µg/mL of melittin was used as a positive permeability control, and the plates were dried as described in the “Antibacterial activity: broth microdilution assay” section. The S. aureus strains were inoculated into MHB, grown to mid-log phase (OD600 of 0.5–0.6), and diluted to OD600 of 0.3. PI (stock concentration of 1 mg/mL in analytical quality H2O) was added to the cell suspension to a final concentration of 10 µg/mL and cells were incubated in the dark at room temperature for 20 min. Thereafter, 100 µL of OD-adjusted PI cells in the mid-log phase were dispensed into each well. Sterile broth and the OD-adjusted inoculum with PI were included as a non-fluorescent control, while sterile broth with PI was included as a sterility control, and melittin was included as membrane depolarization control. All the tests were performed in triplicate, with independent duplicates. Fluorometric readings of the plate were conducted in 4-min intervals over 60 min (readings began ~60 s after cells were added to the plate) using a Tecan Spark at 535 nm excitation wavelength and 617 nm emission wavelength.\n(§2) The leakage kinetics or PI permeabilization kinetic was assessed using a rate parameter of ΔPI fluorescence per minute. This was done by fitting linear regression lines on the linear sections, namely 6–16 min for melittin and 6–18 min, as well as 34–50 min for W2-FL10. The rates of PI permeabilization were compared between the three S. aureus strains using a one-way ANOVA with Bonferroni’s post hoc test."}, "S. aureus ATCC 25923": {"tested_on": "S. aureus ATCC 25923", "assay": "Membrane permeability assay, propidium iodide", "format": "cell-based, Staphylococcus aureus", "conditions": "25 µg/mL", "description": "as §1, §2"}, "S. aureus RN4220": {"tested_on": "S. aureus RN4220", "assay": "Membrane permeability assay, propidium iodide", "format": "cell-based, Staphylococcus aureus", "conditions": "25 µg/mL", "description": "as §1, §2"}}}
{"smiles": "CCCCCCCC1CC(=O)N[C@H](CC(C)C)C(=O)N[C@@H](CO)C(=O)N[C@@H]([C@@H](C)O)C(=O)N[C@H](Cc2ccccc2)C(=O)N[C@@H](CC(C)C)C(=O)O1", "note": "(stereo partly shown) [W2-FL10, serrawettin W2-FL10]", "values": [{"measurement": "MIC", "setting": "[1]", "value": "> 125", "unit": "µg/mL"}, {"measurement": "time within which ≥90% uptake in PI fluorescence was observed", "setting": "MRSA Xen 30", "value": "≤ 3,240 s"}, {"measurement": "time within which ≥90% uptake in PI fluorescence was observed", "setting": "S. aureus ATCC 25923", "value": "≤ 3,360 s"}, {"measurement": "time within which ≥90% uptake in PI fluorescence was observed", "setting": "S. aureus RN4220", "value": "≤ 2,760 s"}]}
